According to PubChem BioAssay AID256 (DTP/NCI, 2004):
Toxic doses and inconclusive results are not listed. How the source made its calls: active means survival T/C of 150% or more; inactive means T/C below 125% in these data.

System: CD2F1 mice, L1210 leukemia ip, survival T/C
Assay: NCI In Vivo Anticancer Drug Screen. Data for tumor model L1210 Leukemia (intraperitoneal) in CD2F1 (CDF1) mice
Conditions: endpoint: mean survival time, higher = longer survival
Summary of the method: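 Each value reflects a quotient of treated over vehicle control outcomes in mice with a transplanted tumor.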

[1] = dose: 100.0 mg/kg/injection, schedule: Q01DX001 (ip), vehicle: saline with Tween-80
[2] = dose: 200.0 mg/kg/injection, schedule: Q01DX001 (ip), vehicle: saline with Tween-80
[3] = dose: 400.0 mg/kg/injection, schedule: Q01DX001 (ip), vehicle: saline with Tween-80
[4] = dose: 75.0 mg/kg/injection, schedule: Q01DX001 (ip), vehicle: saline
[5] = dose: 100.0 mg/kg/injection, schedule: Q01DX009 (ip), vehicle: saline with Tween-80
[6] = dose: 200.0 mg/kg/injection, schedule: Q01DX009 (ip), vehicle: saline with Tween-80
[7] = dose: 400.0 mg/kg/injection, schedule: Q01DX009 (ip), vehicle: saline with Tween-80
[8] = dose: 50.0 mg/kg/injection, schedule: Q01DX009 (ip), vehicle: saline
[9] = dose: 100.0 mg/kg/injection, schedule: Q01DX009 (ip), vehicle: saline
[10] = dose: 200.0 mg/kg/injection, schedule: Q01DX009 (ip), vehicle: saline
[11] = dose: 100.0 mg/kg/injection, schedule: Q01DX001 (ip), vehicle: saline
[12] = dose: 200.0 mg/kg/injection, schedule: Q01DX001 (ip), vehicle: saline
[13] = dose: 400.0 mg/kg/injection, schedule: Q01DX001 (ip), vehicle: saline
[14] = dose: 100.0 mg/kg/injection, schedule: Q04DX003 (ip), vehicle: saline with Tween-80
[15] = dose: 200.0 mg/kg/injection, schedule: Q04DX003 (ip), vehicle: saline with Tween-80
[16] = dose: 400.0 mg/kg/injection, schedule: Q04DX003 (ip), vehicle: saline with Tween-80

Measured: T/C

CCCC[n+]1ccccc1Cc1ccccc1
inactive: dose: 25.0 mg/kg/injection, schedule: Q04DX003 (ip), vehicle: saline 101 % of control

Cc1ccc(N2C(=O)CSC2=S)c(Br)c1
inactive: [1] 101 % of control | [2] 101 % of control | [3] 106 % of control

Cc1cccc(N=NN(C)C)c1
inactive: dose: 19.0 mg/kg/injection, schedule: Q01DX009 (ip), vehicle: Klucel (hydroxypropylcellulose) (HPC) 113 % of control | dose: 29.0 mg/kg/injection, schedule: Q01DX009 (ip), vehicle: Klucel (hydroxypropylcellulose) (HPC) 119 % of control | dose: 44.0 mg/kg/injection, schedule: Q01DX009 (ip), vehicle: Klucel (hydroxypropylcellulose) (HPC) 123 % of control | dose: 66.0 mg/kg/injection, schedule: Q01DX009 (ip), vehicle: Klucel (hydroxypropylcellulose) (HPC) 114 % of control | [4] 120 % of control

CCC(C)C(C(=O)O)c1ccccc1 (configuration not stated)
inactive: [5] 104 % of control | [6] 101 % of control | [7] 98 % of control

O=C(NCCNC(c1ccccc1)C(NCCNC(=O)c1ccccc1)c1ccccc1)c1ccccc1 (configuration not stated)
inactive: [1] 92 % of control | [2] 96 % of control | [3] 92 % of control

CC1(C)OC1CS(=O)c1ccccc1 (configuration not stated)
inactive: dose: 12.5 mg/kg/injection, schedule: Q01DX009 (ip), vehicle: saline with Tween-80 95 % of control | dose: 12.5 mg/kg/injection, schedule: Q01DX009 (ip), vehicle: saline 98 % of control | dose: 25.0 mg/kg/injection, schedule: Q01DX009 (ip), vehicle: saline with Tween-80 98 % of control | dose: 25.0 mg/kg/injection, schedule: Q01DX009 (ip), vehicle: saline 93 % of control | dose: 50.0 mg/kg/injection, schedule: Q01DX009 (ip), vehicle: saline with Tween-80 95 % of control | [8] 101 % of control | [5] 95 % of control | [9] 95 % of control | [6] 98 % of control | [10] 105 % of control | [7] 93 % of control | dose: 400.0 mg/kg/injection, schedule: Q01DX009 (ip), vehicle: saline 98 % of control

C/C(=C\c1ccc(Cl)c(Cl)c1)[N+](=O)[O-]
inactive: [11] 104 % of control | [12] 109 % of control | [13] 111 % of control

CCN(C(=O)Nc1cccc(Cl)c1)c1ccccc1C
inactive: [5] 91 % of control | [6] 97 % of control | [7] 97 % of control

CCC(C)CC(C)C1=NC(C)(C)CC(C)O1 (configuration not stated)
inactive: [1] 104 % of control | [2] 90 % of control

NCCCN1CCN(CCCN)CC1
inactive: dose: 100.0 mg/kg/injection, schedule: Q04DX002 (ip), vehicle: saline 98 % of control | dose: 200.0 mg/kg/injection, schedule: Q04DX002 (ip), vehicle: saline 91 % of control | dose: 400.0 mg/kg/injection, schedule: Q04DX002 (ip), vehicle: saline 98 % of control

CCC(=O)O.CCC(=O)O.CCC(=O)O.CCC(=O)O.O=P1(N(CCCl)CCCl)NCCCO1.O=P1(N(CCCl)CCCl)NCCCO1.[Rh].[Rh] (configuration not stated)
inactive: dose: 0.5 mg/kg/injection, schedule: Q01DX001 (ip), vehicle: water 92 % of control | dose: 1.0 mg/kg/injection, schedule: Q01DX001 (ip), vehicle: water 92 % of control | dose: 2.0 mg/kg/injection, schedule: Q01DX001 (ip), vehicle: water 102 % of control | dose: 4.0 mg/kg/injection, schedule: Q01DX001 (ip), vehicle: water 107 % of control

O=C(OC1CC2CCC1C2Cl)c1ccc2ccccc2c1 (configuration not stated)
inactive: [1] 93 % of control | [5] 91 % of control | [2] 89 % of control | [6] 93 % of control | [3] 95 % of control | [7] 95 % of control

[Cl][PtH].c1ccc([PH+](c2ccccc2)c2ccccc2)cc1.c1ccc([PH+](c2ccccc2)c2ccccc2)cc1
inactive: [1] 92 % of control | [2] 92 % of control | [3] 95 % of control

CC[C@H](CC[C@@H](C)[C@H]1CC[C@H]2[C@@H]3CC=C4C[C@@H](O)CC[C@]4(C)[C@H]3CC[C@]12C)C(C)C
inactive: [5] 89 % of control | [6] 101 % of control | [7] 95 % of control

COS(=O)(=O)O
inactive: dose: 100.0 mg/kg/injection, schedule: Q04DX003 (ip), vehicle: saline 96 % of control | dose: 200.0 mg/kg/injection, schedule: Q04DX003 (ip), vehicle: saline 96 % of control

OC(C=C(C(F)(F)F)C(F)(F)F)c1cccs1 (configuration not stated)
inactive: [5] 95 % of control

CC(C)NCc1ccc2c(c1)OCO2
inactive: [4] 98 % of control | dose: 150.0 mg/kg/injection, schedule: Q01DX001 (ip), vehicle: saline 101 % of control

CCN=C(N)C(N)=NCC
inactive: dose: 25.0 mg/kg/injection, schedule: Q04DX002 (ip), vehicle: saline with Tween-80 100 % of control | dose: 50.0 mg/kg/injection, schedule: Q04DX002 (ip), vehicle: saline with Tween-80 96 % of control | dose: 100.0 mg/kg/injection, schedule: Q04DX002 (ip), vehicle: saline with Tween-80 100 % of control | dose: 200.0 mg/kg/injection, schedule: Q04DX002 (ip), vehicle: saline with Tween-80 100 % of control

CC1/C(=N\Nc2ccc([N+](=O)[O-])cc2[N+](=O)[O-])CCC2C1(C)CCC1C2(C)CCC2(C)C3CC(C)(C)CCC3(C)CCC12C (configuration not stated)
inactive: [11] 97 % of control | [12] 97 % of control | [13] 97 % of control

O=[N+]([O-])c1ccc2cn[nH]c2c1
inactive: dose: 100.0 mg/kg/injection, schedule: Q01DX001 (ip), vehicle: alcohol 92 % of control | dose: 200.0 mg/kg/injection, schedule: Q01DX001 (ip), vehicle: alcohol 98 % of control | dose: 400.0 mg/kg/injection, schedule: Q01DX001 (ip), vehicle: alcohol 93 % of control

COc1cc(C=Nc2ccc(-n3ccnc3C)cc2)ccc1N(CCCl)CCCl
inactive: dose: 2.5 mg/kg/injection, schedule: Q01DX009 (ip), vehicle: saline with Tween-80 98 % of control | dose: 5.0 mg/kg/injection, schedule: Q01DX009 (ip), vehicle: saline with Tween-80 113 % of control | dose: 10.0 mg/kg/injection, schedule: Q01DX009 (ip), vehicle: saline with Tween-80 112 % of control | dose: 20.0 mg/kg/injection, schedule: Q01DX009 (ip), vehicle: saline with Tween-80 117 % of control

CCN1CCSC1=S
inactive: dose: 75.0 mg/kg/injection, schedule: Q01DX001 (ip), vehicle: other 102 % of control | dose: 150.0 mg/kg/injection, schedule: Q01DX001 (ip), vehicle: other 100 % of control | dose: 300.0 mg/kg/injection, schedule: Q01DX001 (ip), vehicle: other 103 % of control

Cc1cc(OC(=O)N2CCCCC2)c(C(C)C)cc1[N+](C)(C)C
inactive: dose: 0.06 mg/kg/injection, schedule: Q01DX009 (ip), vehicle: saline 95 % of control | dose: 0.07 mg/kg/injection, schedule: Q04DX003 (ip), vehicle: saline sonified 97 % of control | dose: 0.13 mg/kg/injection, schedule: Q04DX003 (ip), vehicle: saline sonified 106 % of control | dose: 0.25 mg/kg/injection, schedule: Q04DX003 (ip), vehicle: saline sonified 100 % of control

O=S(=O)(F)c1ccc(C[P+](c2ccccc2)(c2ccccc2)c2ccccc2)c(Cl)c1
inactive: dose: 18.8 mg/kg/injection, schedule: Q01DX009 (ip), vehicle: saline 103 % of control | dose: 18.8 mg/kg/injection, schedule: Q04DX003 (ip), vehicle: saline 114 % of control | dose: 37.5 mg/kg/injection, schedule: Q01DX009 (ip), vehicle: saline 100 % of control | dose: 37.5 mg/kg/injection, schedule: Q04DX003 (ip), vehicle: saline 116 % of control | [4] 103 % of control | dose: 75.0 mg/kg/injection, schedule: Q04DX003 (ip), vehicle: saline 112 % of control

CN(C)c1ccc(CN2CCCN(Cc3ccc(N(C)C)cc3)C2c2cc(Cl)ccc2O)cc1
inactive: [5] 86 % of control | [14] 98 % of control | [6] 93 % of control | [15] 92 % of control | [7] 86 % of control | [16] 92 % of control

O=C(Oc1ccccc1Cl)c1ccccc1
inactive: [5] 100 % of control | [14] 105 % of control | [6] 98 % of control | [15] 100 % of control | [7] 108 % of control | [16] 111 % of control

CCN=Cc1ccccc1O.CCN=Cc1ccccc1O.[Pd]
inactive: [1] 106 % of control | [2] 95 % of control | [3] 95 % of control

C=C1OC(n2cnc3c(N)ncnc32)C(O)C1O (configuration not stated)
inactive: [11] 98 % of control | [12] 101 % of control | [13] 98 % of control

CN(C)CC1CCCCN1 (configuration not stated)
inactive: [8] 94 % of control | [9] 94 % of control | [10] 94 % of control
